Experimental findings from EP0174162A2, “Pharmaceutically active dipeptide derivatives” (THE WELLCOME FOUNDATION LIMITED, priority 1984, dated 1986) are described below.

Assay [1] addresses T1, ACE (Rattus norvegicus, UniProt P47820).
T1 construct: in pithed rats; from tissue; host or cells: whole animal (pithed rat)
T1 sequence (P47820 36-1313): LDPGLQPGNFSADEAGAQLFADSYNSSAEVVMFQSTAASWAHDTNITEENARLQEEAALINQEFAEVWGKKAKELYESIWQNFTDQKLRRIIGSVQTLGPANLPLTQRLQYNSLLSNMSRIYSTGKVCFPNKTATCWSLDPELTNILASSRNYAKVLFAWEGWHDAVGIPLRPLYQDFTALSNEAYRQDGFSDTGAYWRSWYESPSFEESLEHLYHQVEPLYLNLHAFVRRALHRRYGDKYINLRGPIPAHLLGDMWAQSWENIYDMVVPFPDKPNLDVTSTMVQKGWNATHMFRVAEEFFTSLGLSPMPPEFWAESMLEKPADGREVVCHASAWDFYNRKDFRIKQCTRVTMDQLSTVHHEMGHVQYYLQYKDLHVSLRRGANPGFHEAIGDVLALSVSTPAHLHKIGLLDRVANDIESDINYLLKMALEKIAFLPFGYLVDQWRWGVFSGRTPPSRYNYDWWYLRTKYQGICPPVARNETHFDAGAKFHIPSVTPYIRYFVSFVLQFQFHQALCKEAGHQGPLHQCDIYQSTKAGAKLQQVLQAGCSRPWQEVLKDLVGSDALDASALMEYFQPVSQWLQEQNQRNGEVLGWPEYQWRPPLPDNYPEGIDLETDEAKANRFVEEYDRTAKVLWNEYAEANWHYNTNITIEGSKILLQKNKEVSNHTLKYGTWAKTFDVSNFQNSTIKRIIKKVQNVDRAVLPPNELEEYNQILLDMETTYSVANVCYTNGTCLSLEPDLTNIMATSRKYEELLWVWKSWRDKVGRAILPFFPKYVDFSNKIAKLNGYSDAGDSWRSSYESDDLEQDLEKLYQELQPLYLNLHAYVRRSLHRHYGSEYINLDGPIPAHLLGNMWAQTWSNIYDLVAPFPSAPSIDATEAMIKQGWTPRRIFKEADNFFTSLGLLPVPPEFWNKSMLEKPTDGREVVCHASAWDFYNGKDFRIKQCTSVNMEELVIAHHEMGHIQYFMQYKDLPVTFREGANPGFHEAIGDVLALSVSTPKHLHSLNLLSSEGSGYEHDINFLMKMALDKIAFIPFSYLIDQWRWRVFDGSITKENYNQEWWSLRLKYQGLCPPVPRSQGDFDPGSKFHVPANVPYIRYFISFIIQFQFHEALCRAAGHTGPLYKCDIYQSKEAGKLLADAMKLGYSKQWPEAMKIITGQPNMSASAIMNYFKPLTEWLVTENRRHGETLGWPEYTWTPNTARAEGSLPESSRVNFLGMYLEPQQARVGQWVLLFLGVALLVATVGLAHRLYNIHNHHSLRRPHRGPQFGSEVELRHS
The experiment in a line: ACE inhibition in vivo: angiotensin I induced pressor responses in pithed rats. The note with it: doses 1-100 µgkg^-1min displaced angiotensin I dose response curves rightwards. As for the experimental part: Doses 1-100 µgkg^-1min effectively displaced in a rightwards fashion, angiotensin I dose response curves.

Assay [2] has as its target isolated enzyme (Homo sapiens, UniProt P12821). The experiment in a line: ACE inhibition on isolated enzyme. The note with it: read-out: apparent IC50 on isolated enzyme. The assay is classed as biochemical.
The test system of assay [3] is isoprenaline induced tachycardia. The experiment in a line: Effect on heart rate: isoprenaline induced tachycardia in pithed rats. The assay is classed as in vivo. The note with it: doses 10-100 µgkg^-1min^-1 displaced isoprenaline dose response curves rightwards. How it is done: Doses 10-100 µgkg^-1min^-1 effectively displaced in a rightwards fashion, isoprenaline dose response curves.

The test system of assay [4] is salt depleted conscious beagle dogs. In words: Antihypertensive activity in salt depleted conscious beagle dogs. The assay is classed as in vivo. The note with it: intravenous administration, doses in the range 1-3 mgkg^-1.
For assay [5], the system named is uninephrectomised, contralateral renal stenotic conscious beagle dogs. In words: Antihypertensive activity in uninephrectomised, contralateral renal stenotic conscious beagle dogs. In kind it is in vivo. The note with it: doses in the range 1-3 mgkg^-1 intravenously.

Sequence of isolated enzyme (P12821 30-1306): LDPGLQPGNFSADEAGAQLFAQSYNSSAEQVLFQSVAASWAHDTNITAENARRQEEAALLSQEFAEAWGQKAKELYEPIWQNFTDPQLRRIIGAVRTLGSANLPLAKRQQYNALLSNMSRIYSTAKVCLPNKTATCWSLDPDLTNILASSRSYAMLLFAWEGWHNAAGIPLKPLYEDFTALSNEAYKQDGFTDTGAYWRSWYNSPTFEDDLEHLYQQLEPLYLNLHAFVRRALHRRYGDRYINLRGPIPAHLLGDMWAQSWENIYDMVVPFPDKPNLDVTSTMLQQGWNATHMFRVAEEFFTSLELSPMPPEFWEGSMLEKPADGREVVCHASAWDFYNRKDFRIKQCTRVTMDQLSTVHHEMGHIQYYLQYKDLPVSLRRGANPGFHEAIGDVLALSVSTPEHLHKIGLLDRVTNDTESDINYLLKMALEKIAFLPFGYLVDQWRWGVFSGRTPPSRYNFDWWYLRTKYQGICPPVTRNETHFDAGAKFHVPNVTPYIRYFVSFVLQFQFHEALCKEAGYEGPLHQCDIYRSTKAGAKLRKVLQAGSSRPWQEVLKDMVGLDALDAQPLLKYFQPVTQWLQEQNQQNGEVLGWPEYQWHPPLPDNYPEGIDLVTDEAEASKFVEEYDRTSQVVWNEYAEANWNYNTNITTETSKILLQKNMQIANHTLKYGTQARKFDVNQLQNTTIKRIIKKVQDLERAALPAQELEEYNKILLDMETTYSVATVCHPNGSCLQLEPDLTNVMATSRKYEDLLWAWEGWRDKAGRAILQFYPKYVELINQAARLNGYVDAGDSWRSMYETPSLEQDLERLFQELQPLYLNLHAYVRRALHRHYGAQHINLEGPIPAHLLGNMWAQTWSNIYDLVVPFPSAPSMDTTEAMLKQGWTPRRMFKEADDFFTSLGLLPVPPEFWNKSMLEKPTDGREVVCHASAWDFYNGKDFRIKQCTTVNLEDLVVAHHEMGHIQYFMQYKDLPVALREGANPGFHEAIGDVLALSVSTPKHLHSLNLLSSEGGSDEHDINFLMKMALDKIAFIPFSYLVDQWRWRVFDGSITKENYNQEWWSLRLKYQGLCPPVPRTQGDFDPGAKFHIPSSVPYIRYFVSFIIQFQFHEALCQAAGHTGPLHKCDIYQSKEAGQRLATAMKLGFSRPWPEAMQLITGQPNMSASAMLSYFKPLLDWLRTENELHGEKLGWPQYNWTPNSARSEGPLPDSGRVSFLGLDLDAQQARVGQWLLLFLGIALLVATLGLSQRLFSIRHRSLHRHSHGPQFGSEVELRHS

As for `CC(C)NCC(O)COc1cccc2[nH]c(C(=O)NCCCC[C@H](NC(C)C(=O)N3CCC[C@H]3C(=O)O)C(=O)O)cc12` (some centres unmarked) [Example 1], the “inhibition of angiotensin I induced pressor responses” value in assay [1] is recorded as “inhibit in a dose dependent fashion”. Further, the IC50 in assay [2] was found to be 0.011 µM. Further, in assay [3], the “inhibition of isoprenaline induced tachycardia” value was “inhibit in a dose dependent fashion”. In addition, the blood pressure result in assay [4] was “reduce blood pressure”. Also, in assay [5], the hypotensive activity result was “marked hypotensive activity”.

As usually defined, the IC50 is the concentration at which inhibition is half-maximal.
